According to US20160002247A1, “8-SUBSTITUTED IMIDAZOPYRIMIDINONE DERIVATIVE HAVING AUTOTAXIN INHIBITORY ACTIVITY” (THE UNIVERSITY OF TOKYO, priority 2013, published 2016):

Experiments:
Human autotaxin enzyme [1] = target: T1, Human autotaxin enzyme (Homo sapiens, UniProt Q13822); experiment: Evaluation of autotaxin inhibitor, Method B (Test Example 2): TG-mTMP fluorescence; assay type: biochemical
T1 construct: purchased R&D System
Protocol: (Method B) Evaluation of Autotaxin Inhibitor
Solution A containing 25 mM Tris-HCl buffer (pH7.5), 100 mM NaCl, 5 mM MgCl2 and 0.1% BSA was prepared. Human autotaxin enzyme (purchased from R&D System) was diluted with Solution A, and 5 μL of which was added to a solution of test compound in DMSO. Furthermore, 5 μl of 0.5 μM TG-mTMP in Solution A was added and allowed to react at room temperature for 2 hours. 5 μl of 150 mM EDTA in Solution A was added to quench the reaction, and the fluorescent dye TokyoGreen, which was produced by the reaction, was detected. The fluorescence was detected using ViewLux (PerkinElmer, Inc.) with an excitation wavelength of 480 nm and a fluorescence wavelength of 540 nm.

Human autotaxin enzyme [2] = target: T1, Human autotaxin enzyme; experiment: Evaluation of autotaxin inhibitor, Method C (Test Example 3): 18:0 Lyso PC, choline assay, Resorufin fluorescence; assay type: biochemical; details: Assay Method C, human autotaxin, 18:0 Lyso PC substrate; read-out: Inhibitory Activity
Summary of the method: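 Choline-coupled fluorescence readout (20 min, resorufin at 531/598 nm) followed a 2 h room-temperature reaction of human autotaxin with 18:0 Lyso PC substrate (added as 200 μM solution) in pH 7.5 Tris buffer containing MgCl2 and Triton X-100. Percent inhibition scaled to no-compound (0%) and no-enzyme (100%) wells and plotted versus concentration.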

[3] = Inhibitory Activity (Enzyme Inhibitory Activity, IC50), Assay Method: Method B (Test Example 2)
[4] = Assay Method: Method B (Test Example 2), read-out: Inhibitory Activity (Enzyme Inhibitory Activity, IC50)
[5] = Assay Method B (Test Example 2), human autotaxin, read-out: Inhibitory Activity (autotaxin enzyme inhibitory activity, IC50 class)

Structure (SMILES)	IC50 (Human autotaxin enzyme [1]; [4]) [nM]	also measured
CCCCCn1c(C)cc(=O)n2cc(-c3ccc(Cl)cc3)nc12 [Compound 3, 2-(4-chlorophenyl)-7-methyl-8-pentyl-imidazo[1,2-a]pyrimidin-5(8H)-one]		IC50 (Human autotaxin enzyme [1]; [3]): < 10 nM
CCCCn1c(C)cc(=O)n2cc(-c3ccc(Cl)cc3)nc12 [Compound 7]	10 to 100	
CCCCCCn1c(C)cc(=O)n2cc(-c3ccc(Cl)cc3)nc12 [Compound 8]	10 to 100	
Cc1cc(=O)n2cc(-c3ccc(Cl)cc3)nc2n1Cc1ccccc1 [Compound 13]	10 to 100	
CCCCCn1c(C)cc(=O)n2cc(-c3ccc(Br)cc3)nc12 [Compound 18]	< 10	
CCOC(=O)Cn1c(C)cc(=O)n2cc(-c3ccc(Cl)cc3)nc12 [Compound 20]		IC50 (Human autotaxin enzyme [1]; [3]): < 10 nM
CCOCCn1c(C)cc(=O)n2cc(-c3ccc(Cl)cc3)nc12 [Compound 26]	10 to 100	
CCC(=O)Cn1c(C)cc(=O)n2cc(-c3ccc(Cl)cc3)nc12 [Compound 28]	10 to 100	
CC(=O)OCCn1c(C)cc(=O)n2cc(-c3ccc(Cl)cc3)nc12 [Compound 29]	10 to 100	
CCCC(O)Cn1c(C)cc(=O)n2cc(-c3ccc(Cl)cc3)nc12 (stereo not shown) [Compound 42]	10 to 100	
C=CCCCn1c(C)cc(=O)n2cc(-c3ccc(Cl)cc3)nc12 [Compound 43]	10 to 100	
CCC/C=C/n1c(C)cc(=O)n2cc(-c3ccc(Cl)cc3)nc12 [Compound 44]	10 to 100	
Cc1cc(=O)n2cc(-c3ccc(Cl)cc3)nc2n1CCCCCO [Compound 45]	100 to 1000	
Cc1cc(=O)n2cc(-c3ccc(Cl)cc3)nc2n1CC(=O)C1CC1 [Compound 50]	100 to 1000	
CCC(=O)C(C)n1c(C)cc(=O)n2cc(-c3ccc(Cl)cc3)nc12 (stereo not shown) [Compound 51]	10 to 100	
Cc1cc(=O)n2cc(-c3ccc(Cl)cc3)nc2n1Cc1ccccc1F [Compound 53]	10 to 100	
Cc1cc(=O)n2cc(-c3ccc(Cl)cc3)nc2n1C(C)c1ccccc1 (stereo not shown) [Compound 54]	10 to 100	
Cc1cc(=O)n2cc(-c3ccc(Cl)cc3)nc2n1CCC(F)=C(F)F [Compound 55]	10 to 100	
CCCC(C)n1c(C)cc(=O)n2cc(-c3ccc(Cl)cc3)nc12 (stereo not shown) [Compound 56]	10 to 100	
Cc1cc(=O)n2cc(-c3ccc(Cl)cc3)nc2n1CC1CCCC1 [Compound 57]	10 to 100	
Cc1cc(=O)n2cc(-c3ccc(Cl)cc3)nc2n1CC1CCCCC1 [Compound 58]	10 to 100	
Cc1cc(=O)n2cc(-c3ccc(Cl)cc3)nc2n1CCCC(F)(F)F [Compound 59]	10 to 100	
Cc1cccc(Cn2c(C)cc(=O)n3cc(-c4ccc(Cl)cc4)nc23)c1 [Compound 60]	100 to 1000	
CC(=O)CCCn1c(C)cc(=O)n2cc(-c3ccc(Cl)cc3)nc12 [Compound 61]	100 to 1000	
CCN(CC)C(=O)Cn1c(C)cc(=O)n2cc(-c3ccc(Cl)cc3)nc12 [Compound 62]	100 to 1000	
Cc1ccccc1Cn1c(C)cc(=O)n2cc(-c3ccc(Cl)cc3)nc12 [Compound 64]	100 to 1000	

Structure (SMILES)	IC50 (Human autotaxin enzyme [1]; [4]) [nM]	also measured
Cc1cc(=O)n2cc(-c3ccc(Cl)cc3)nc2n1CCC(F)(F)F [Compound 65]	100 to 1000	
Cc1cc(=O)n2cc(-c3ccc(Cl)cc3)nc2n1CC1CC1 [Compound 66]	10 to 100	
Cc1ccc(Cn2c(C)cc(=O)n3cc(-c4ccc(Cl)cc4)nc23)cc1 [Compound 67]	10 to 100	
Cc1cc(=O)n2cc(-c3ccc(Cl)cc3)nc2n1CC(=O)NC(C)C [Compound 68]	> 1000	
Cc1cc(=O)n2cc(-c3ccc(Cl)cc3)nc2n1CC(=O)C1CCCCC1 [Compound 69]	> 1000	
Cc1cc(=O)n2cc(-c3ccc(Cl)cc3)nc2n1CCN(C)C [Compound 70]	100 to 1000	
CCC(C)Cn1c(C)cc(=O)n2cc(-c3ccc(Cl)cc3)nc12 (stereo not shown) [Compound 71]	10 to 100	
Cc1cc(=O)n2cc(-c3ccc(Cl)cc3)nc2n1CC(=O)OC(C)C [Compound 72]	10 to 100	
Cc1cc(=O)n2cc(-c3ccc(Cl)cc3)nc2n1CC(=O)OC(C)(C)C [Compound 73]	10 to 100	
Cc1cc(=O)n2cc(-c3ccc(Cl)cc3)nc2n1C(C)C(=O)OC(C)(C)C (stereo not shown) [Compound 74]	100 to 1000	
CCN(CC)CCn1c(C)cc(=O)n2cc(-c3ccc(Cl)cc3)nc12 [Compound 75]	100 to 1000	
Cc1cc(=O)n2cc(-c3ccc(Cl)cc3)nc2n1CCOC(C)C [Compound 76]	100 to 1000	
Cc1cc(=O)n2cc(-c3ccc(Cl)cc3)nc2n1CC1CCC1 [Compound 77]	10 to 100	
Cc1cc(=O)n2cc(-c3ccc(Cl)cc3)nc2n1CC(C)C [Compound 78]	10 to 100	
Cc1cc(=O)n2cc(-c3ccc(Cl)cc3)nc2n1CCC(C)C [Compound 79]	10 to 100	
CCOC(=O)C(C)n1c(C)cc(=O)n2cc(-c3ccc(Cl)cc3)nc12 (stereo not shown) [Compound 80]	10 to 100	
Cc1cc(=O)n2cc(-c3ccc(Cl)cc3)nc2n1CCCC(C)C [Compound 81]	< 10	
Cc1cc(=O)n2cc(-c3ccc(Cl)cc3)nc2n1CCc1ccccc1 [Compound 82]	10 to 100	
Cc1cc(=O)n2cc(-c3ccc(Cl)cc3)nc2n1C1CCC1 [Compound 83]	10 to 100	
CCCC(Cn1c(C)cc(=O)n2cc(-c3ccc(Cl)cc3)nc12)OS(C)(=O)=O (stereo not shown) [Compound 84]	< 10	
Cc1cc(=O)n2cc(-c3ccc(Cl)cc3)nc2n1Cc1ccc(OCCN2CCCC2)cc1 [Compound 85]	< 10	
CCOC(=O)c1ccc(Cn2c(C)cc(=O)n3cc(-c4ccc(Cl)cc4)nc23)cc1 [Compound 86]	100 to 1000	
CCC(CC)Cn1c(C)cc(=O)n2cc(-c3ccc(Cl)cc3)nc12 [Compound 87]		IC50 (Human autotaxin enzyme [1]; [5]): 10 to 100 nM
Cc1cc(=O)n2cc(-c3ccc(Cl)cc3)nc2n1Cc1ccc(-c2ccccc2)cc1 [Compound 88]		IC50 (Human autotaxin enzyme [1]; [5]): 100 to 1000 nM
Cc1cc(=O)n2cc(-c3ccc(Cl)cc3)nc2n1Cc1ccc(OCCCN(C)C)cc1 [Compound 89]		IC50 (Human autotaxin enzyme [1]; [5]): < 10 nM
Cc1cc(=O)n2cc(-c3ccc(Cl)cc3)nc2n1Cc1ccc(Cl)cc1F [Compound 90]		IC50 (Human autotaxin enzyme [1]; [5]): 10 to 100 nM

Structure (SMILES)	IC50 (Human autotaxin enzyme [1]; [4]) [nM]	also measured
Cc1cc(=O)n2cc(-c3ccc(Cl)cc3)nc2n1Cc1ccc(-c2ncccn2)cc1 [Compound 91]		IC50 (Human autotaxin enzyme [1]; [5]): 10 to 100 nM
Cc1cncc(Oc2ccc(Cn3c(C)cc(=O)n4cc(-c5ccc(Cl)cc5)nc34)cc2)n1 [Compound 92]		IC50 (Human autotaxin enzyme [1]; [5]): 10 to 100 nM
Cc1cc(=O)n2cc(-c3ccc(Cl)cc3)nc2n1Cc1ccc(Oc2ccccc2)cc1 [Compound 93]		IC50 (Human autotaxin enzyme [1]; [5]): > 1000 nM
Cc1cc(=O)n2cc(-c3ccc(Cl)cc3)nc2n1CCCCF [Compound 94]		IC50 (Human autotaxin enzyme [1]; [5]): 10 to 100 nM
Cc1cc(=O)n2cc(-c3ccc(Cl)cc3)nc2n1Cc1ccc(C(C)C)cc1 [Compound 95]		IC50 (Human autotaxin enzyme [1]; [5]): 10 to 100 nM
Cc1cc(=O)n2cc(-c3ccc(Cl)cc3)nc2n1Cc1cccc(OCC(=O)O)c1 [Compound 96]		IC50 (Human autotaxin enzyme [1]; [5]): 100 to 1000 nM
Cc1cc(=O)n2cc(-c3ccc(Cl)cc3)nc2n1Cc1ccc(Br)cc1F [Compound 97]		IC50 (Human autotaxin enzyme [1]; [5]): 10 to 100 nM
Cc1cc(=O)n2cc(-c3ccc(Cl)cc3)nc2n1Cc1ccc(C(=O)O)cc1 [Compound 99]		IC50 (Human autotaxin enzyme [1]; [5]): 100 to 1000 nM
O=C(Cc1cn(CCCC(F)(F)F)c2nc(-c3ccc(Cl)cc3)cn2c1=O)N[C@H]1CCN(C2COC2)C1 [Compound 852]		IC50 (Human autotaxin enzyme [2]): > 1000 nM
O=C(Cc1cn(CCCC(F)(F)F)c2nc(-c3ccc(Cl)cc3)cn2c1=O)N1CCN(CCO)CC1 [Compound 853]		IC50 (Human autotaxin enzyme [2]): > 1000 nM
CN(CC(O)CO)C(=O)Cc1cn(CCCC(F)(F)F)c2nc(-c3ccc(Cl)cc3)cn2c1=O (stereo not shown) [Compound 854]		IC50 (Human autotaxin enzyme [2]): > 1000 nM
NS(=O)(=O)CCNC(=O)Cc1cn(CCCC(F)(F)F)c2nc(-c3ccc(Cl)cc3)cn2c1=O [Compound 855]		IC50 (Human autotaxin enzyme [2]): > 1000 nM
CC(=O)CNC(=O)Cc1cn(CCCC(F)(F)F)c2nc(-c3ccc(Cl)cc3)cn2c1=O [Compound 856]		IC50 (Human autotaxin enzyme [2]): > 1000 nM
CC(C)(O)CNC(=O)Cc1cn(CCCC(F)(F)F)c2nc(-c3ccc(Cl)cc3)cn2c1=O [Compound 857]		IC50 (Human autotaxin enzyme [2]): > 1000 nM
O=C(Cc1cn(CCCC(F)(F)F)c2nc(-c3ccc(Cl)cc3)cn2c1=O)NCc1nn[nH]n1 [Compound 858]		IC50 (Human autotaxin enzyme [2]): 10 to 100 nM
N#CC(NC(=O)Cc1cn(CCCC(F)(F)F)c2nc(-c3ccc(Cl)cc3)cn2c1=O)C(N)=O (stereo not shown) [Compound 859]		IC50 (Human autotaxin enzyme [2]): > 1000 nM
O=C1CCN(C(=O)Cc2cn(CCCC(F)(F)F)c3nc(-c4ccc(Cl)cc4)cn3c2=O)C1 [Compound 860]		IC50 (Human autotaxin enzyme [2]): 100 to 1000 nM
CCC(CO)(CO)NC(=O)Cc1cn(CCCC(F)(F)F)c2nc(-c3ccc(Cl)cc3)cn2c1=O [Compound 861]		IC50 (Human autotaxin enzyme [2]): 10 to 100 nM
N#CC1CN(C(=O)Cc2cn(CCCC(F)(F)F)c3nc(-c4ccc(Cl)cc4)cn3c2=O)CCO1 (stereo not shown) [Compound 862]		IC50 (Human autotaxin enzyme [2]): 10 to 100 nM
Cc1noc(CNC(=O)Cc2cn(CCCC(F)(F)F)c3nc(-c4ccc(Cl)cc4)cn3c2=O)n1 [Compound 863]		IC50 (Human autotaxin enzyme [2]): 100 to 1000 nM
CS(=O)(=O)CCOCCNC(=O)Cc1cn(CCCC(F)(F)F)c2nc(-c3ccc(Cl)cc3)cn2c1=O [Compound 864]		IC50 (Human autotaxin enzyme [2]): > 1000 nM
O=C(Cc1cn(CCCC(F)(F)F)c2nc(-c3ccc(Cl)cc3)cn2c1=O)N1CCOCC1 [Compound 865]		IC50 (Human autotaxin enzyme [2]): 100 to 1000 nM
O=C(Cc1cn(CCCC(F)(F)F)c2nc(-c3ccc(Cl)cc3)cn2c1=O)N[C@H](CO)Cc1ccccc1 [Compound 866]		IC50 (Human autotaxin enzyme [2]): > 1000 nM
C[C@H]1CCCCN1C(=O)Cc1cn(CCCC(F)(F)F)c2nc(-c3ccc(Cl)cc3)cn2c1=O [Compound 867]		IC50 (Human autotaxin enzyme [2]): 10 to 100 nM
